How the values were obtained:
[1] = Inhibition of KCl-induced tonic contraction in Beagle dog detrusor muscle strips preincubated for 15 mins before KCl challenge; format: functional; details: Canis lupus familiaris, read-out: EC50
[2] = Protein binding in Beagle dog serum; format: ADME, cell-free, Canis lupus familiaris; details: read-out: PPB (converted)
[3] = molecular target: Beta-3 adrenergic receptor (Canis lupus familiaris, UniProt O02662); experiment: Agonist activity at dog recombinant beta3 adrenergic receptor expressed in CHO cells assessed as cAMP accumulation by enzyme immunoassay; format: functional, cell-based
Beta-3 adrenergic receptor (Canis lupus familiaris, UniProt O02662), sequence (O02662 whole entry): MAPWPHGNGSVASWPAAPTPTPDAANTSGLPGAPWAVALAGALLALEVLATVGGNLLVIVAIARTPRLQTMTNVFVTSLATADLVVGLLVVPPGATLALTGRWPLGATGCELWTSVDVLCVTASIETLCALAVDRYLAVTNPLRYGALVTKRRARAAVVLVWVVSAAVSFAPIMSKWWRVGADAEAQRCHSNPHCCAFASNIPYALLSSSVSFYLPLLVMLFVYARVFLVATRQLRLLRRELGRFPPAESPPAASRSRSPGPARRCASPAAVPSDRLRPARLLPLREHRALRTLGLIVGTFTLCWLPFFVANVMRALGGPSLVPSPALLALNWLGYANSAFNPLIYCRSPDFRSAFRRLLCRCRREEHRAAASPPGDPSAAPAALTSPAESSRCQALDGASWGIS

Canis familiaris [4] = experiment: Inhibition of carbachol-induced increase in intravesical pressure in intraduodenally dosed Beagle dog OAB model for 30 mins measured for 180 mins; format: functional, organism-based; details: Canis lupus familiaris
[5] = Cmax in Beagle dog at 0.10 mg/kg, po by cassette assay; format: ADME, organism-based, Canis lupus familiaris; set-up: dose 0.1 mg/kg, route oral; details: in vivo, 0.1 mg/kg
[6] = Total clearance in Beagle dog at 0.10 mg/kg, iv by cassette assay; format: ADME, organism-based, Canis lupus familiaris; set-up: dose 0.1 mg/kg, route intravenous; details: in vivo, 0.1 mg/kg
[7] = molecular target: Beta-3 adrenergic receptor (Homo sapiens, UniProt P13945); experiment: Agonist activity at human recombinant beta3 adrenergic receptor expressed in CHO cells assessed as cAMP accumulation by enzyme immunoassay; format: functional, cell-based
Beta-3 adrenergic receptor (Homo sapiens, UniProt P13945), sequence (P13945 whole entry): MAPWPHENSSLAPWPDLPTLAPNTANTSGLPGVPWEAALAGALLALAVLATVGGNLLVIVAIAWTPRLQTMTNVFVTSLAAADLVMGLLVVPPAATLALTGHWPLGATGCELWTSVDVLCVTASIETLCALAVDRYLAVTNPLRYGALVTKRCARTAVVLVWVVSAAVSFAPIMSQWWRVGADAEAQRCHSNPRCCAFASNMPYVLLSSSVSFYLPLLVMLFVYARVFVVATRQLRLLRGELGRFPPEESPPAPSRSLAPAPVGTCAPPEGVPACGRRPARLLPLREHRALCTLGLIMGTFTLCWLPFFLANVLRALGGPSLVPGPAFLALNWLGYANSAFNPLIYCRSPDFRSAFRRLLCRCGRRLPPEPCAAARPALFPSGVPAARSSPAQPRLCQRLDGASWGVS

[8] = Bioavailability in Beagle dog at 0.10 mg/kg, po and iv by cassette assay; format: ADME, organism-based, Canis lupus familiaris; details: in vivo, 0.1 mg/kg
[9] = molecular target: Beta-1 adrenergic receptor (Homo sapiens, UniProt P08588)
Beta-1 adrenergic receptor, sequence (P08588 whole entry): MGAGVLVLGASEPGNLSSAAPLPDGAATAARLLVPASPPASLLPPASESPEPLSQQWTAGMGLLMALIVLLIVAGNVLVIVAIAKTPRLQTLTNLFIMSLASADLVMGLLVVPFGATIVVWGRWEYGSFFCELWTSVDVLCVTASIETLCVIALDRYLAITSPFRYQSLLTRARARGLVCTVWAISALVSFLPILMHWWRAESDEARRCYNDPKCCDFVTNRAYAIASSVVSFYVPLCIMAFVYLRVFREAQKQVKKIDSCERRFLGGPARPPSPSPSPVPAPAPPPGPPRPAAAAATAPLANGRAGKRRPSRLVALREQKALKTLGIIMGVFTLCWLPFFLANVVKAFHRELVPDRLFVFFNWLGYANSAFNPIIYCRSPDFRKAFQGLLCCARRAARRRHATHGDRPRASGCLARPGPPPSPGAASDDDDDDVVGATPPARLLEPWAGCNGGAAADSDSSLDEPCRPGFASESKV
Description: Agonist activity at human recombinant beta-1 adrenergic receptor expressed in CHO cells assessed as cAMP accumulation by enzyme immunoassay

[10] = AUC (0 to 24 hrs) in Beagle dog at 0.10 mg/kg, po by cassette assay; format: ADME, organism-based, Canis lupus familiaris; set-up: time < 24 hr, dose 0.1 mg/kg, route oral; details: plasma, 0.1 mg/kg
[11] = Terminal half life in Beagle dog plasma at 0.10 mg/kg, iv by cassette assay; format: ADME, organism-based, Canis lupus familiaris; set-up: dose 0.1 mg/kg, route intravenous; details: 0.1 mg/kg, read-out: beta t1/2 (converted)
Canis familiaris [12] = experiment: Inhibition of carbachol-induced increase in intravesical pressure in Beagle dog OAB model at 10 ug/kg, iv for 30 mins measured for 180 mins; format: functional; details: Canis lupus familiaris
[13] = molecular target: Beta-2 adrenergic receptor (Homo sapiens, UniProt P07550)
Beta-2 adrenergic receptor, sequence (P07550 whole entry): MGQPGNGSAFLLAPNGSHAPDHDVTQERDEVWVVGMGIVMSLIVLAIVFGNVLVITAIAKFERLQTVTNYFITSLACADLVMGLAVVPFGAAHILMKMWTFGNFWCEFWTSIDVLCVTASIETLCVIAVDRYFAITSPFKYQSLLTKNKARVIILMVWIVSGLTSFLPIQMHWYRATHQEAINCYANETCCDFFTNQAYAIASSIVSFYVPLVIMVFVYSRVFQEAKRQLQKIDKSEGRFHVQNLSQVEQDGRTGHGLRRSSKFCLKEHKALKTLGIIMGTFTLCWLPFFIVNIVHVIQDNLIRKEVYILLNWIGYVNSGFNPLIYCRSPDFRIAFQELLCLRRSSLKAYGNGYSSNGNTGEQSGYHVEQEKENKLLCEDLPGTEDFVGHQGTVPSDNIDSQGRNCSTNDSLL
Description: Agonist activity at human recombinant beta2 adrenergic receptor expressed in CHO cells assessed as cAMP accumulation by enzyme immunoassay

SMILES | Cmax [5] [ng/mL] | clearance [6] [mL/min/kg] | EC50 ([7]; read-out: EC50) [nM] | bioavailability [8] [%] | EC50 [9] [nM] | AUC(0-t) at 24 h [10] [ng·h/mL] | half-life [11] [h] | other results
CC(C)Cc1cc(-c2ccc(CCNC[C@H](O)c3ccccc3)cc2)ccc1C(=O)O | – | – | – | – | – | – | – | EC50 [1]: 8.7 nM; fraction unbound [2]: 0.14; EC50 ([3]; read-out: EC50): 2.2 nM; EC50 (Canis familiaris [4]): 18.7 nM; ED50 (Canis familiaris [4]): 0.0459 mg/kg
CC(C)Cc1cc(-c2ccc(CCNC[C@H](O)c3cccnc3)cc2)ccc1C(=O)NS(C)(=O)=O.Cl.Cl | 2.6 | 35.9 | 0.32 | 21 | 490 | 12 | 0.6 | –
CC(C)Sc1cc(-c2ccc(CCNC[C@H](O)c3cccnc3)cc2)ccc1C(=O)NS(C)(=O)=O.Cl.Cl | 5.3 | 5.4 | 0.19 | 14 | 240 | 50.9 | 4.3 | –
CS(=O)(=O)NC(=O)c1ccc(-c2ccc(CCNC[C@H](O)c3ccccc3)cc2)cc1OC1CCCCCC1 | – | – | 0.38 | – | 220 | – | – | –
CS(=O)(=O)NC(=O)c1ccc(-c2ccc(CCNC[C@H](O)c3ccccc3)cc2)cc1OC1CCCC1 | – | – | 0.62 | – | 750 | – | – | –
CS(=O)(=O)NC(=O)c1ccc(-c2ccc(CCNC[C@H](O)c3ccccc3)cc2)cc1NC1CCCCC1.Cl.Cl | 3.2 | 9.9 | 0.14 | 22 | 900 | 33.5 | 3.9 | –
CS(=O)(=O)NC(=O)c1ccc(-c2ccc(CCNC[C@H](O)c3ccc(N)cc3)cc2)cc1OC1CCCCC1.Cl.Cl | 17.5 | 5 | 0.5 | 68 | > 1000 | 212 | 5.7 | EC50 ([7]; read-out: pEC50 (converted)): 0.0631 nM
CCCSc1cc(-c2ccc(CCNC[C@H](O)c3ccccc3)cc2)ccc1C(=O)NS(C)(=O)=O.Cl | 8.1 | – | 1.4 | – | > 1000 | 91.9 | – | –
CC(C)Oc1cc(-c2ccc(CCNC[C@H](O)c3ccc(N)cc3)cc2)ccc1C(=O)NS(C)(=O)=O | – | – | 5.5 | – | > 1000 | – | – | EC50 ([7]; read-out: pEC50 (converted)): 0.2 nM
CCCCCOc1cc(-c2ccc(CCNC[C@H](O)c3ccccc3)cc2)ccc1C(=O)NS(C)(=O)=O | – | – | 2.8 | – | 160 | – | – | –
CS(=O)(=O)NC(=O)c1ccc(-c2ccc(CCNC[C@H](O)c3ccccc3)cc2)cc1C1CCCCC1.Cl | 13.1 | – | 0.33 | – | > 1000 | 106 | – | –
CS(=O)(=O)NC(=O)c1ccc(-c2ccc(CCNC[C@H](O)c3ccccc3)cc2)cc1Oc1ccccc1.Cl | 70.3 | 2.2 | 0.6 | 98 | > 1000 | 756 | 4.4 | inhibition in vivo at 0.01 mg/kg (Canis familiaris [12]): 35%; EC50 ([3]; read-out: EC50): 2.9 nM
CS(=O)(=O)NC(=O)c1ccc(-c2ccc(CCNC[C@H](O)c3ccccc3)cc2)cc1SC1CCCCC1.Cl | 8 | – | 0.5 | – | 840 | 56.3 | – | –
CS(=O)(=O)NC(=O)c1ccc(-c2ccc(CCNC[C@H](O)c3cccnc3)cc2)cc1C1CCCC1.Cl.Cl | 1.4 | 21.8 | 0.29 | 18 | > 1000 | 13.4 | 1.4 | –
CS(=O)(=O)NC(=O)c1ccc(-c2ccc(CCNC[C@H](O)c3ccccc3)cc2)cc1C1CCCC1.Cl | 17.1 | 4 | 0.41 | 50 | > 1000 | 211 | 4.7 | –
CS(=O)(=O)NC(=O)c1ccc(-c2ccc(CCNC[C@H](O)c3cccnc3)cc2)cc1NC1CCCCC1.Cl.Cl.Cl | 10.3 | 12.4 | 0.062 | 21 | > 1000 | 28.4 | 1.3 | EC50 [13]: > 10000 nM
CC(C)Oc1cc(-c2ccc(CCNC[C@H](O)c3cccnc3)cc2)ccc1C(=O)NS(C)(=O)=O | – | – | 1 | – | 130 | – | – | –
CC(C)Oc1cc(-c2ccc(CCNC[C@H](O)c3ccccc3)cc2)ccc1C(=O)O | – | – | – | – | – | – | – | EC50 [1]: 6.8 nM; inhibition in vivo at 0.01 mg/kg (Canis familiaris [12]): > 70%
CC(C)Nc1cc(-c2ccc(CCNC[C@H](O)c3cccnc3)cc2)ccc1C(=O)NS(C)(=O)=O.Cl.Cl.Cl | 1.9 | 16.4 | 0.2 | 12 | 320 | 10.4 | 2.7 | –
CS(=O)(=O)NC(=O)c1ccc(-c2ccc(CCNC[C@H](O)c3ccccc3)cc2)cc1CC1CCCCC1.Cl | 27.9 | 4.9 | 0.54 | 70 | 370 | 230 | 3.9 | –
CC(C)Sc1cc(-c2ccc(CCNC[C@H](O)c3ccccc3)cc2)ccc1C(=O)O | – | – | – | – | – | – | – | EC50 [1]: 11 nM; EC50 ([3]; read-out: EC50): 1.2 nM; EC50 (Canis familiaris [4]): 11.2 nM; ED50 (Canis familiaris [4]): 0.047 mg/kg
CC(C)Oc1cc(-c2ccc(CCNC[C@H](O)c3ccccc3)cc2)ccc1C(=O)NS(C)(=O)=O.Cl | 33.4 | 2.3 | 3.1 | 75 | > 1000 | 562 | 12 | EC50 ([7]; read-out: pEC50 (converted)): 0.631 nM; inhibition in vivo at 0.01 mg/kg (Canis familiaris [12]): 51%; EC50 ([3]; read-out: EC50): 4.9 nM; EC50 ([3]; read-out: pEC50 (converted)): 1 nM
COc1cc(-c2ccc(CCNC[C@H](O)c3ccccc3)cc2)ccc1C(=O)NS(C)(=O)=O | – | – | 18 | – | 730 | – | – | –
